According to the supplement of paper PMC10307832:

Key:
Test in all cases: relative viability (nuclei count vs DMSO), 5 days (fraction); higher = more cells survive
[1] = compound: C1=CC=C2C(=C1)N=C(S2)C(C#N)C3=NC(=NC=C3)NCCC4=CN=CC=C4 + CC(=O)Nc1cccc(-n2c(=O)n(C3CC3)c(=O)c3c(Nc4ccc(I)cc4F)n(C)c(=O)c(C)c32)c1 [Trametinib] (partner 0.02 µM)
In short: (§1)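 A single step with final 0.05% Triton X-100, 1% formaldehyde and 1 ug/ml Hoechst fixed the cells and stained nuclei 5 days after treatment. Lung cancer cell lines in 1536-well plates had been treated by pin tool the day after seeding with one drug alone or a fixed anchor-drug dose plus five library-drug doses (not always all listed) in √10 steps, and nuclei were counted on 4× images. Relative viability is the ratio of nuclei in treated wells to nuclei in vehicle wells, taken as the median of duplicate plates.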

NVP-TAE684 + Dasatinib = compound: COc1cc(N2CCC(N3CCN(C)CC3)CC2)ccc1Nc1ncc(Cl)c(Nc2ccccc2S(=O)(=O)C(C)C)n1 [NVP-TAE684] + Cc1nc(Nc2ncc(C(=O)Nc3c(C)cccc3Cl)s2)cc(N2CCN(CCO)CC2)n1 [Dasatinib] (partner 0.075 µM)
In short: as §1

CUDC-101 + Tozasertib = compound: C#Cc1cccc(Nc2ncnc3cc(OC)c(OCCCCCCC(=O)NO)cc23)c1 [CUDC-101] + Cc1cc(Nc2cc(N3CCN(C)CC3)nc(Sc3ccc(NC(=O)C4CC4)cc3)n2)n[nH]1 [Tozasertib] (partner 0.1 µM)
In short: as §1

CUDC-101 + Foretinib = compound: C#Cc1cccc(Nc2ncnc3cc(OC)c(OCCCCCCC(=O)NO)cc23)c1 [CUDC-101] + COc1cc2c(Oc3ccc(NC(=O)C4(C(=O)Nc5ccc(F)cc5)CC4)cc3F)ccnc2cc1OCCCN1CCOCC1 [Foretinib] (partner 0.25 µM)
In short: as §1

NVP-TAE684 + Decitabine = compound: COc1cc(N2CCC(N3CCN(C)CC3)CC2)ccc1Nc1ncc(Cl)c(Nc2ccccc2S(=O)(=O)C(C)C)n1 [NVP-TAE684] + Nc1ncn([C@H]2C[C@H](O)[C@@H](CO)O2)c(=O)n1 [Decitabine] (partner 2 µM)
In short: as §1

UMC-11
relative viability ([1]; first compound 0.01581 µM): 0.741
relative viability ([1]; first compound 0.05 µM): 0.664
relative viability ([1]; first compound 0.1581 µM): 0.839
relative viability ([1]; first compound 0.5 µM): 0.831
relative viability (NVP-TAE684 + Dasatinib; first compound 0.2 µM): 0.577
relative viability (NVP-TAE684 + Dasatinib; first compound 0.6325 µM): 0.415
relative viability (NVP-TAE684 + Dasatinib; first compound 2 µM): 0.284
relative viability (CUDC-101 + Tozasertib; first compound 0.01 µM): 0.193
relative viability (CUDC-101 + Tozasertib; first compound 0.03162 µM): 0.176
relative viability (CUDC-101 + Tozasertib; first compound 0.1 µM): 0.193
relative viability (CUDC-101 + Tozasertib; first compound 0.3162 µM): 0.155
relative viability (CUDC-101 + Tozasertib; first compound 1 µM): 0.133
relative viability (CUDC-101 + Foretinib; first compound 0.01 µM): 1.06
relative viability (CUDC-101 + Foretinib; first compound 0.03162 µM): 1.03
relative viability (CUDC-101 + Foretinib; first compound 0.1 µM): 0.945
relative viability (CUDC-101 + Foretinib; first compound 0.3162 µM): 0.317
relative viability (CUDC-101 + Foretinib; first compound 1 µM): 0.106
relative viability (NVP-TAE684 + Decitabine; first compound 0.2 µM): 0.582
relative viability (NVP-TAE684 + Decitabine; first compound 0.6325 µM): 0.581
relative viability (NVP-TAE684 + Decitabine; first compound 2 µM): 0.346
